Values after ≈ are worked out from the molar mass of the structure shown.
Tests used:
[1] = system: Escherichia coli; assay: Antimicrobial activity multi drug-resistant against Escherichia coli; type: functional
[2] = system: Staphylococcus aureus; assay: Antimicrobial activity methicillin-resistant against Staphylococcus aureus; type: functional
[3] = system: Lacticaseibacillus casei; assay: Antibacterial activity against Lactobacillus casei NCIM-2651 assessed as reduction in microbial growth incubated for 24 hrs by broth dilution method; type: functional; conditions: NCIM-2651, 24 h
[4] = system: Pseudomonas aeruginosa; assay: Antimicrobial activity against Pseudomonas aeruginosa NCIM-2036 after 24 hrs by CLSI based broth dilution method; type: functional; conditions: NCIM-2036, 24 h
[5] = system: Bacillus subtilis; assay: Antimicrobial activity against Bacillus subtilis NCIM-2063 assessed as zone of inhibition at 5 ug after 24 hrs by disk diffusion method; type: functional; conditions: NCIM-2063, 24 h, read-out: IZ
[6] = system: Pseudomonas aeruginosa; assay: Antimicrobial activity against Pseudomonas aeruginosa NCIM-2036 assessed as zone of inhibition at 5 ug after 24 hrs by disk diffusion method; type: functional; conditions: NCIM-2036, 24 h, read-out: IZ
[7] = system: Bacillus cereus; assay: Antimicrobial activity against Bacillus cereus NCIM-2156 assessed as zone of inhibition at 5 ug after 24 hrs by disk diffusion method; type: functional; conditions: NCIM-2156, 24 h, read-out: IZ
[8] = system: Staphylococcus aureus; assay: Antimicrobial activity against Staphylococcus aureus NCIM-2079 assessed as zone of inhibition at 5 ug after 24 hrs by disk diffusion method; type: functional; conditions: NCIM-2079, 24 h, read-out: IZ
[9] = system: Proteus vulgaris; assay: Antimicrobial activity against Proteus vulgaris NCIM-2027 assessed as reduction in microbial growth after 24 hrs by CLSI based broth dilution method; type: functional; conditions: NCIM-2027, 24 h
[10] = system: Escherichia coli; assay: Antimicrobial activity against Escherichia coli NCIM-2065 assessed as reduction in microbial growth after 24 hrs by CLSI based broth dilution method; type: functional; conditions: NCIM-2065, 24 h
[11] = system: Staphylococcus aureus; assay: Antimicrobial activity against Staphylococcus aureus […] assessed as reduction in microbial growth after 24 to 48 hrs by microdilution susceptibility test; type: functional
[12] = system: Escherichia coli; assay: Antimicrobial activity against Escherichia coli ATCC 25922 assessed as reduction in microbial growth after 24 to 48 hrs by microdilution susceptibility test; type: functional
[13] = system: Staphylococcus aureus; assay: Antimicrobial activity against methicillin-resistant Staphylococcus aureus clinical isolate MRSA1 assessed as reduction in microbial growth by two-fold serial dilution method; type: functional
[14] = Cytotoxicity against African green monkey Vero cells incubated for 72 hrs by MTT assay; type: cell-based; conditions: chlorocebus sabaeus
[15] = system: Klebsiella pneumoniae; assay: Antimicrobial activity against multi drug-resistant Klebsiella pneumoniae assessed as reduction in microbial growth by two-fold serial dilution method; type: functional
[16] = system: Candida albicans; assay: Antifungal activity against Candida albicans NCIM-3102 at 18 to 24 hrs by CLSI based alamar blue assay; type: functional
[17] = system: Staphylococcus aureus; assay: Antimicrobial activity against methicillin-resistant Staphylococcus aureus assessed as reduction in microbial growth after 24 to 48 hrs by microdilution susceptibility test; type: functional
[18] = system: Escherichia coli; assay: Antimicrobial activity against multi drug-resistant Escherichia coli assessed as reduction in microbial growth after 24 to 48 hrs by microdilution susceptibility test; type: functional
[19] = system: Nakaseomyces glabratus; assay: Antifungal activity against Candida glabrata NCIM-3266 at 18 to 24 hrs by CLSI based alamar blue assay; type: functional

Cc1ccc(C2=NN=C3C(F)CC4=C(C(C5CC5)C=C(C(=O)O)C4=O)N3C2)cc1 (stereo not drawn)
MIC [1]: 0.25 µg/mL (≈ 0.635 µM) | MIC [2]: 0.5 µg/mL (≈ 1.27 µM)

O=C(O)C1=CC(C2CC2)C2=C(CC(F)C3=NN=C(c4ccccc4F)CN32)C1=O (stereo not drawn)
MIC [1]: 0.25 µg/mL (≈ 0.629 µM) | MIC [2]: 0.25 to 8 µg/mL (≈ 0.629 to 20.1 µM)

Nc1nc(Nc2nc(-c3ccc(Cl)cc3)cs2)nc(Sc2ccccc2)n1
MIC [3]: 3.12 µg/mL

CC1=NN(c2ccccc2)C(C)C1Nc1nnc(Sc2nc(Nc3ccc(Br)cc3)nc(Nc3ccc(Br)cc3)n2)s1 (stereo not drawn)
MIC [4]: 6.25 µg/mL (≈ 8.63 µM)

O=C(O)C1=CC(C2CC2)C2=C(CC(F)C3=NN=C(c4ccc([N+](=O)[O-])cc4)CN32)C1=O (stereo not drawn)
MIC [1]: 0.25 µg/mL (≈ 0.589 µM) | MIC [2]: 0.25 to 8 µg/mL (≈ 0.589 to 18.9 µM)

O=[N+]([O-])c1ccc(Nc2nc(Nc3ccc([N+](=O)[O-])cc3)nc(N3CCN(C(=S)Nc4ccnc5cc(Cl)ccc45)CC3)n2)cc1
zone of inhibition at 5 µg/disc [5]: 16 to 17 mm | zone of inhibition at 5 µg/disc [6]: 9 to 17 mm | zone of inhibition at 5 µg/disc [7]: 9 to 17 mm | zone of inhibition at 5 µg/disc [8]: 16 to 17 mm

C=CC1=C(C(=O)O)N2C(=O)[C@@H](NC(=O)/C(=N\OCC(=O)O)c3csc(N)n3)[C@H]2SC1 [CEFIXIME]
MIC [9]: 3.91 to 7.81 µg/mL | MIC [4]: 3.12 to 6.25 µg/mL (≈ 6.89 to 13.8 µM) | MIC [10]: 3.91 to 7.81 µg/mL

CC1(C)S[C@@H]2[C@H](NC(=O)[C@H](N)c3ccccc3)C(=O)N2[C@H]1C(=O)O.O.O.O [AMPICILLIN TRIHYDRATE]
MIC [11]: 12.5 µg/mL | MIC [12]: 25 µg/mL

Nc1nc(N)nc(Nc2ccc(C(=O)N/N=C/c3ccco3)cc2)n1
MIC [13]: 3.12 µg/mL | CC50 at 72 h [14]: 125 µg/mL (≈ 369 µM) | MIC [15]: 12.5 µg/mL

CC1=NN(c2ccccc2)C(C)C1Nc1nnc(Sc2nc(Nc3ccc(F)cc3)nc(Nc3ccc(F)cc3)n2)s1 (stereo not drawn)
MIC [4]: 6.25 µg/mL (≈ 10.4 µM)

S=C(Nc1ccnc2cc(Cl)ccc12)N1CCN(c2nc(Nc3ccc(Br)cc3)nc(Nc3ccc(Br)cc3)n2)CC1
zone of inhibition at 5 µg/disc [5]: 16 to 17 mm | zone of inhibition at 5 µg/disc [6]: 9 to 17 mm | zone of inhibition at 5 µg/disc [7]: 9 to 17 mm | zone of inhibition at 5 µg/disc [8]: 16 to 17 mm

CC(C)Nc1nc(Nc2nc(-c3ccc(Cl)cc3)cs2)nc(NC(C)C)n1
MIC [16]: 5 µg/mL (≈ 12.4 µM)

O=C(O)c1ccc(Nc2nc(Cl)nc(N3CCCCC3)n2)cc1
MIC [11]: 25 µg/mL | MIC [17]: 100 µg/mL | CC50 at 72 h [14]: 125 µg/mL (≈ 374 µM) | MIC [18]: 25 µg/mL | MIC [12]: 25 µg/mL

OC(Cn1cncn1)(Cn1cncn1)c1ccc(F)cc1F [FLUCONAZOLE]
MIC [16]: 0.63 µg/mL (≈ 2.06 µM) | MIC [19]: 0.63 µg/mL (≈ 2.06 µM)

CC1=NN(c2ccccc2)C(C)C1Nc1nnc(Sc2nc(Nc3ccc(Cl)cc3)nc(Nc3ccc(Cl)cc3)n2)s1 (stereo not drawn)
MIC [4]: 6.25 µg/mL (≈ 9.83 µM)

O=C(CNc1nc(NCC(=O)N/N=C/c2ccc(Cl)cc2)nc(Nc2ccc(Nc3nc(NCC(=O)N/N=C/c4ccc(Cl)cc4)nc(NCC(=O)N/N=C/c4ccc(Cl)cc4)n3)cc2)n1)N/N=C/c1ccc(Cl)cc1
MIC [11]: 12.5 to 25 µg/mL | MIC [12]: 12.5 to 25 µg/mL

Nc1nc(Nc2ccccc2)nc(Nc2nc(-c3ccc(Cl)cc3)cs2)n1
MIC [3]: 3.12 µg/mL

O=C(O)c1ccc(Nc2nc(Cl)nc(NCc3ccccc3)n2)cc1
MIC [11]: 12.5 µg/mL | MIC [17]: 25 µg/mL | CC50 at 72 h [14]: 225 µg/mL (≈ 632 µM) | MIC [18]: 100 µg/mL | MIC [12]: 50 µg/mL

Clc1ccc(-c2csc(Nc3nc(N(c4ccccc4)c4ccccc4)nc(N(c4ccccc4)c4ccccc4)n3)n2)cc1
MIC [16]: 0.63 µg/mL (≈ 1.01 µM)

From ChEMBL document CHEMBL4321839, “Structure-activity relationships (SAR) of triazine derivatives: Promising antimicrobial agents” (Eur J Med Chem, 2020)
